Experimental data as given in PubChem BioAssay (NCI).
“And” between values parts separate entries of the source, which are not always exact repeats. Equal entries are not always repeated.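 Grown in 96-well plates, cells were treated for 48 hours with each compound at five concentrations. Insufficient inhibition: endpoint recorded as highest concentration tested. The concentration for 50% growth inhibition is given as GI50. TGI denotes the concentration required for complete inhibition of growth.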

What was measured:
Experiment in all cases: growth of human tumour cells (NCI), 48 h
[1] = tested on: OVCAR-5 ovarian
[2] = tested on: M14 melanoma
[3] = tested on: DMS 114 small cell lung
[4] = tested on: OVCAR-3 ovarian
[5] = tested on: OVCAR-4 ovarian
[6] = tested on: A498 renal
[7] = tested on: NCI-H226 lung
[8] = tested on: A549 NSCLC
[9] = tested on: U251 CNS
[10] = tested on: SNB-75 CNS
[11] = tested on: MALME-3M melanoma
[12] = tested on: HOP-18 NSCLC
[13] = tested on: KM20L2 colon
[14] = tested on: ACHN renal
[15] = tested on: NCI-H460 lung
[16] = tested on: CAKI-1 renal
[17] = tested on: SF-268 CNS
[18] = tested on: MOLT-4 leukemia
[19] = tested on: SW-620 colon
[20] = tested on: KM12 colon
[21] = tested on: SF-295 CNS
[22] = tested on: HCT-116 colon
[23] = tested on: SR leukemia
[24] = tested on: XF 498 CNS
[25] = tested on: NCI-H23 lung
[26] = tested on: RPMI-8226 leukemia
[27] = tested on: 786-0 renal
[28] = tested on: LXFL 529 NSCLC
[29] = tested on: HCC-2998 colon
[30] = tested on: M19-MEL melanoma
[31] = tested on: SN12C renal
[32] = tested on: SK-MEL-28 melanoma
[33] = tested on: UACC-62 melanoma
[34] = tested on: HT29 colon
[35] = tested on: IGROV1 ovarian
[36] = tested on: DMS 273 small cell lung
[37] = tested on: HOP-92 NSCLC
[38] = tested on: UO-31 renal
[39] = tested on: UACC-257 melanoma
[40] = tested on: HL-60(TB) leukemia
[41] = tested on: HCT-15 colon
[42] = tested on: RXF-631 renal
[43] = tested on: SK-MEL-5 melanoma
[44] = tested on: SF-539 CNS
[45] = tested on: TK-10 renal
[46] = tested on: OVCAR-8 ovarian
[47] = tested on: HOP-62 NSCLC
[48] = tested on: LOX IMVI melanoma
[49] = tested on: NCI-H522 lung
[50] = tested on: SK-MEL-2 melanoma
[51] = tested on: COLO 205 colon
[52] = tested on: K-562 leukemia
[53] = tested on: SNB-19 CNS
[54] = tested on: SK-OV-3 ovarian
[55] = tested on: RXF 393 renal
[56] = tested on: CCRF-CEM leukemia
[57] = tested on: EKVX NSCLC
[58] = tested on: BT-549 breast
[59] = tested on: T-47D breast
[60] = tested on: MDA-N
[61] = tested on: HS 578T breast
[62] = tested on: MDA-MB-435
[63] = tested on: DLD-1 colon
[64] = tested on: DU-145 prostate
[65] = tested on: PC-3 prostate
[66] = tested on: MDA-MB-231 breast
[67] = tested on: MCF7 breast

## CC1=C2CCCC2C/C(=N/Nc2ccc([N+](=O)[O-])cc2[N+](=O)[O-])CC1 (configuration not stated)
[1]
  TGI: > 100 µM
[2]
  TGI: > 100 µM
[3]
  TGI: > 100 µM
[4]
  TGI: > 100 µM
[5]
  TGI: > 100 µM
[6]
  TGI: > 100 µM
[7]
  TGI: > 100 µM
[8]
  TGI: > 100 µM
[9]
  TGI: > 100 µM
[10]
  TGI: > 100 µM
[11]
  TGI: > 100 µM
[12]
  TGI: > 100 µM
[13]
  TGI: > 100 µM
[14]
  TGI: > 100 µM
[15]
  TGI: > 100 µM
[16]
  TGI: > 100 µM
[17]
  TGI: > 100 µM
[18]
  TGI: > 100 µM
[19]
  TGI: > 100 µM
[20]
  TGI: > 100 µM
[21]
  TGI: > 100 µM
[22]
  TGI: > 100 µM
[23]
  TGI: > 100 µM
[24]
  TGI: > 100 µM
[25]
  TGI: > 100 µM
[26]
  TGI: > 100 µM
[27]
  TGI: > 100 µM
[28]
  TGI: > 100 µM
[29]
  TGI: > 100 µM
[30]
  TGI: > 100 µM
[31]
  TGI: > 100 µM
[32]
  TGI: > 100 µM
[33]
  TGI: > 100 µM
[34]
  TGI: > 100 µM
[35]
  TGI: > 100 µM
[36]
  TGI: > 100 µM
[37]
  TGI: > 100 µM
[38]
  TGI: > 100 µM
[39]
  TGI: > 100 µM
[40]
  TGI: 83.2 µM
[41]
  TGI: > 100 µM
[42]
  TGI: > 100 µM
[43]
  TGI: > 100 µM
[44]
  TGI: > 100 µM
[45]
  TGI: > 100 µM
[46]
  TGI: > 100 µM
[47]
  TGI: > 100 µM
[48]
  TGI: > 100 µM
[49]
  TGI: > 100 µM
[50]
  TGI: > 100 µM
[51]
  TGI: > 100 µM
[52]
  TGI: > 100 µM
[53]
  TGI: > 100 µM
[54]
  TGI: > 100 µM

## CS(=O)(=O)CC1=Nc2nnc(CCCCCCCc3nnc4n3C(=O)C(CS(C)(=O)=O)=N4)n2C1=O
[1]
  TGI: > 100 µM
[2]
  TGI: > 100 µM
[3]
  TGI: > 100 µM
[4]
  TGI: > 100 µM
[55]
  TGI: > 100 µM
[6]
  TGI: > 100 µM
[7]
  TGI: > 100 µM
[8]
  TGI: > 100 µM
[56]
  TGI: > 100 µM
[9]
  TGI: > 100 µM
[10]
  TGI: > 100 µM
[11]
  TGI: > 100 µM
[12]
  TGI: > 100 µM
[13]
  TGI: > 100 µM
[14]
  TGI: > 100 µM
[15]
  TGI: > 100 µM
[16]
  TGI: > 100 µM
[17]
  TGI: > 100 µM
[18]
  TGI: > 100 µM
[19]
  TGI: > 100 µM
[20]
  TGI: > 100 µM
[21]
  TGI: > 100 µM
[22]
  TGI: > 100 µM
[23]
  TGI: > 100 µM
[24]
  TGI: > 100 µM
[25]
  TGI: > 100 µM
[26]
  TGI: > 100 µM
[27]
  TGI: > 100 µM
[28]
  TGI: > 100 µM
[29]
  TGI: > 100 µM
[30]
  TGI: > 100 µM
[31]
  TGI: > 100 µM
[32]
  TGI: > 100 µM
[33]
  TGI: > 100 µM
[34]
  TGI: > 100 µM
[35]
  TGI: > 100 µM
[37]
  TGI: > 100 µM
[38]
  TGI: > 100 µM
[39]
  TGI: > 100 µM
[40]
  TGI: > 100 µM
[41]
  TGI: > 100 µM
[43]
  TGI: > 100 µM
[44]
  TGI: > 100 µM
[57]
  TGI: > 100 µM
[45]
  TGI: > 100 µM
[46]
  TGI: > 100 µM
[47]
  TGI: > 100 µM
[48]
  TGI: > 100 µM
[49]
  TGI: > 100 µM
[51]
  TGI: > 100 µM
[52]
  TGI: > 100 µM
[53]
  TGI: > 100 µM
[54]
  TGI: > 100 µM

## CCc1ccc(NCc2cc(OC)c(OC)c(OC)c2)cc1
[1]
  GI50: 4.09 µM
  TGI: > 76.1 µM
[2]
  GI50: 0.261 µM and 0.392 µM
  TGI: 27.6 µM
[3]
  TGI: 4.9 µM and 10.2 µM
[4]
  GI50: 0.348 µM
  TGI: 1.32 µM
[5]
  TGI: > 100 µM
[6]
  GI50: 2.28 µM and 3.85 µM
  TGI: 20.6 µM and 49 µM
[7]
  TGI: > 85 µM
[8]
  GI50: 0.693 µM and 0.216 µM
  TGI: 98.2 µM and > 92.2 µM
[56]
  TGI: > 77.9 µM
[9]
  GI50: 0.411 µM and 0.167 µM
  TGI: 22.2 µM and 11.9 µM
[10]
  GI50: 0.387 µM and 0.882 µM
  TGI: > 100 µM
[58]
  TGI: > 100 µM and 34.8 µM
[11]
  TGI: 30.8 µM and 35.6 µM
[12]
  GI50: 3.4 µM and 27.6 µM
  TGI: > 100 µM
[13]
  TGI: 1.32 µM and 1.64 µM
[14]
  TGI: 66.7 µM and 77.4 µM
[15]
  GI50: 0.268 µM and 0.127 µM
  TGI: 25.1 µM and 17 µM
[16]
  TGI: > 100 µM
[17]
  GI50: 0.862 µM and 1.78 µM
  TGI: 43.6 µM and 64.8 µM
[18]
  TGI: 87.2 µM and > 91.5 µM
[19]
  GI50: 0.0871 µM and 0.0541 µM
  TGI: > 100 µM
[20]
  TGI: 20.8 µM and 13.8 µM
[21]
  GI50: 0.0741 µM
  TGI: 6.29 µM and 1.99 µM
[22]
  TGI: 10.2 µM and 27.4 µM
[23]
  TGI: 44.6 µM and > 100 µM
[59]
  TGI: 74.5 µM
[24]
  TGI: 21.7 µM and 53.9 µM
[60]
  GI50: < 0.01 µM
  TGI: 1.17 µM and 0.772 µM
[25]
  TGI: 24.8 µM and 15.1 µM
[26]
  TGI: 40.7 µM and 52 µM
[27]
  GI50: 0.369 µM and 0.77 µM
  TGI: 17.3 µM and > 38.5 µM
[28]
  GI50: 0.523 µM and 1.57 µM
  TGI: 14 µM and 65.4 µM
[29]
  TGI: 11 µM and 12.1 µM
[30]
  TGI: 35.3 µM and > 87.8 µM
[31]
  GI50: 0.578 µM and 1.16 µM
  TGI: 38.4 µM and > 68.7 µM
[32]
  GI50: 1.27 µM and 0.185 µM
  TGI: > 75.2 µM and 69.6 µM
[33]
  GI50: 0.22 µM and 0.105 µM
  TGI: 83.1 µM and > 85.3 µM
[34]
  TGI: 1.72 µM and 1.39 µM
[35]
  GI50: 1.32 µM and 0.615 µM
  TGI: > 66.2 µM
[36]
  GI50: 0.19 µM and 0.628 µM
  TGI: 13 µM
[61]
  TGI: > 100 µM
[37]
  GI50: 5.24 µM
  TGI: 22.2 µM and 74.6 µM
[38]
  GI50: 1.37 µM and 3.95 µM
  TGI: 55.8 µM and 62.6 µM
[62]
  GI50: 0.0232 µM and 0.0172 µM
  TGI: 45.8 µM and 31.3 µM
[63]
  TGI: > 100 µM
[39]
  TGI: > 100 µM
[40]
  TGI: 7.94 µM and 5.38 µM
[64]
  TGI: > 100 µM and 19.5 µM
[41]
  TGI: 42.2 µM and 20.4 µM
[65]
  TGI: 53 µM and 18.7 µM
[43]
  GI50: 0.297 µM and 0.104 µM
  TGI: 7.84 µM and 14.7 µM
[44]
  GI50: 0.296 µM and 0.107 µM
  TGI: 1.02 µM and 0.814 µM
[57]
  TGI: > 96.1 µM and 84.3 µM
[45]
  GI50: 24.6 µM and 10.7 µM
  TGI: > 100 µM
[46]
  GI50: 0.687 µM and 1.45 µM
  TGI: 43.6 µM and 48.1 µM
[47]
  TGI: 52.4 µM and 35.5 µM
[48]
  GI50: 0.543 µM and 0.149 µM
  TGI: 25.7 µM and 43.8 µM
[49]
  GI50: 0.274 µM
  TGI: 0.59 µM and 0.807 µM
[50]
  GI50: 0.255 µM and 0.106 µM
  TGI: 23.9 µM and > 54 µM
[51]
  GI50: 0.251 µM and 0.333 µM
  TGI: 1.3 µM and 1.47 µM
[52]
  GI50: 0.111 µM
  TGI: 26.4 µM and 52.4 µM
[53]
  GI50: 1.14 µM
  TGI: > 100 µM
[66]
  GI50: 1.27 µM
  TGI: > 100 µM
[67]
  TGI: 24.8 µM
[54]
  GI50: 0.315 µM and 0.152 µM
  TGI: 9.02 µM and 16.9 µM
